According to patent US20250235543A1, “MODIFIED PROTEINS AND PROTEIN DEGRADERS” (Cullgen (Shanghai), Inc., priority 2021, published 2025):

Experiments:
P300/CBP = P300/CBP cellular protein degradation; format: cell-based
Method: Cultured cells were washed with cold PBS once and lysed in cold RIPA buffer supplemented with protease inhibitors and phosphatase inhibitors (Beyotime Biotechnology). The solutions were then incubated at 4° C. for 30 min with gentle agitation to fully lysed cells. Cell lysates were centrifuged at 13,000 rpm for 10 min at 4° C. and pellets were discarded. Total protein concentrations in the lysates were determined following BCA assays (Beyotime Biotechnology). Cell lysates were mixed with Laemmli loading buffer and heated at 99° C. for 5 min. Proteins were resolved on SDS-PAGE and visualized using Western ECL Substrate kits on a ChemiDoc MP Imaging system (Bio-Rad). Protein bands were quantitated using the Image Lab software provided by Bio-Rad.

cyclin D1 = assay: Cyclin D1 percentage degradation in Calu-1 cells (immunoblotting); format: cell-based; settings: 16 hours
How it was run: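 Cyclin D1 degradation was assessed by western blot. Clarified lysates, obtained by RIPA lysis with inhibitors and centrifugation at 13,000 rpm, were normalized by BCA protein assay and separated by SDS-PAGE. Bands were detected with Western ECL Substrate on a Bio-Rad ChemiDoc MP Imaging system and quantified in Image Lab software to derive percentage degradation.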

CDK4 = biological target: T1, CDK4 (Homo sapiens, UniProt P11802); assay: CDK4 percentage degradation in Calu-1 cells (immunoblotting); format: cell-based; settings: Calu-1 cells, 16 hours; for inhibition at 0.2 µM: 200 nM, read-out: CDK4 Degradation (200 nM); for inhibition at 10 µM: read-out: CDK4 Degradation (10 μM)
T1 construct: endogenous in cells; host or cells: Calu-1
How it was run: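 CDK4 degradation was measured by immunoblotting. Cells were washed in cold PBS and lysed in RIPA buffer with inhibitors for 30 min at 4° C., then spun at 13,000 rpm to clear. After BCA protein determination, lysates were heated at 99° C. for 5 min in Laemmli buffer, resolved on SDS-PAGE, imaged on a ChemiDoc MP with ECL substrate, and band intensities quantified.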

DDB1 = biological target: T2, DDB1 (Homo sapiens, UniProt Q16531, D705G/DEL396-460/DEL463-701/I704S/T703N); assay: SPR binding assay to immobilized DDB1ΔBPB; settings: binding affinities to DDB1
T2 construct: His6 (N, cleaved yes); TEV protease cleavage site (N, cleaved yes); made in house; host or cells: SF9 insect cells, Bac-to-Bac baculovirus, pFastBacHTB vector
Method: The binding affinities of heterobifunctional compounds to DDB1 were determined by SPR assay (FIG. 1A-1B). Purified DDB1ΔBPB proteins were immobilized on a CM5 sensor chip, and a dose range of compound solutions were injected in multi-cycle kinetic format. Data were fit to a steady state model to provide equivalent dissociation constants (Kd).
Human DDB1ΔBPB (UniProt: Q16531. BPB domain, aa 396 to 705, is replaced with a GNGNSG linker) coding sequences were cloned into pFastBacHTB vector and were expressed in SF9 cells using Bac-to-Bac baculovirus expression system (Thermo Fisher Scientific). The expression constructs include an N-terminal His6-tag to facilitate the purification, and a TEV protease cleavage site in between. DDB1ΔBPB proteins were obtained from supernatant of cell lysates and purified through sequential application of Ni affinity column (Ni-NTA column, Bio-Rad) and size-exclusion column (Superdex 200 16/600GL column, GE Healthcare) chromatography. Protein tags were cleaved off by TEV protease, and the resulting untagged proteins were further purified by Ni affinity column. Purified proteins were verified by immunoblotting, analytic SEC, and LC-MS.
SPR studies were performed on a Biacore X100 plus instrument (GE Healthcare). Immobilization of purified DDB1ΔBPB was carried out at 25° C. using a CM5 sensor chip. The surface was pre-equilibrated in HBS-EP running buffer (10 mM HEPES, pH7.4, 150 mM NaCl, 3 mM EDTA, 0.05% P20), before it was activated with EDC/NHS. DDB1ΔBPB proteins were immobilized by amine coupling to a density of 10,000-12,000 resonance units (RUs) on flow cell FC2, whereas flow cell FC1 was used as reference. Both protein immobilized and reference surfaces were deactivated with 1M ethanolamine. All interaction experiments were performed at 25° C. Test compounds were prepared and serially diluted in HBS-EP running buffer containing final 5% DMSO (6-point two-fold serial dilution, 100 μM-3.125 μM final concentration of compounds). Compound solutions were injected individually in multi-cycle kinetic format without regeneration (flow rate 30 μl/min, association time 120 s, dissociation time 120 s). Sensorgrams from reference surfaces and blank injections were subtracted from the raw data (double-referencing) and the data was solvent-corrected prior to analysis. All data were fit to steady state affinity model using Biacore Evaluation Software to provide equivalent dissociation constants (Kd).

T1 sequence (P11802 2-303 limits assumed): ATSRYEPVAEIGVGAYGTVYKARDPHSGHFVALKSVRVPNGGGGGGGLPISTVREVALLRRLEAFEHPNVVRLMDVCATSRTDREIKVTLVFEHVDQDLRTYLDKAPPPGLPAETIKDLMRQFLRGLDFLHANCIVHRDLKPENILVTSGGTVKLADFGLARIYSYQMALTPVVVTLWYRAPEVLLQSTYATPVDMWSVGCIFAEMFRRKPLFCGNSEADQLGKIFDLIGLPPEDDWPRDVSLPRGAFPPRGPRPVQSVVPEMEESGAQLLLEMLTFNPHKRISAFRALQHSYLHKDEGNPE
T1 sequence (P24385 whole entry partner): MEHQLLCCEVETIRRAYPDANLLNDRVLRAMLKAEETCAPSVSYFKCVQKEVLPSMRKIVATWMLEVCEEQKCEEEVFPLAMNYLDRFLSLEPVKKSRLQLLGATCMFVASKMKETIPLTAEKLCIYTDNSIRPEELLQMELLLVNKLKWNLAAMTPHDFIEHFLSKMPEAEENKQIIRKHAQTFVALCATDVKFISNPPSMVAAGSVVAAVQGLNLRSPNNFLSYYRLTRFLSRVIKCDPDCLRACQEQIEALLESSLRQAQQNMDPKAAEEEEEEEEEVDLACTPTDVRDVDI
T1 sequence (Q16531 2-1140 limits assumed, further chain): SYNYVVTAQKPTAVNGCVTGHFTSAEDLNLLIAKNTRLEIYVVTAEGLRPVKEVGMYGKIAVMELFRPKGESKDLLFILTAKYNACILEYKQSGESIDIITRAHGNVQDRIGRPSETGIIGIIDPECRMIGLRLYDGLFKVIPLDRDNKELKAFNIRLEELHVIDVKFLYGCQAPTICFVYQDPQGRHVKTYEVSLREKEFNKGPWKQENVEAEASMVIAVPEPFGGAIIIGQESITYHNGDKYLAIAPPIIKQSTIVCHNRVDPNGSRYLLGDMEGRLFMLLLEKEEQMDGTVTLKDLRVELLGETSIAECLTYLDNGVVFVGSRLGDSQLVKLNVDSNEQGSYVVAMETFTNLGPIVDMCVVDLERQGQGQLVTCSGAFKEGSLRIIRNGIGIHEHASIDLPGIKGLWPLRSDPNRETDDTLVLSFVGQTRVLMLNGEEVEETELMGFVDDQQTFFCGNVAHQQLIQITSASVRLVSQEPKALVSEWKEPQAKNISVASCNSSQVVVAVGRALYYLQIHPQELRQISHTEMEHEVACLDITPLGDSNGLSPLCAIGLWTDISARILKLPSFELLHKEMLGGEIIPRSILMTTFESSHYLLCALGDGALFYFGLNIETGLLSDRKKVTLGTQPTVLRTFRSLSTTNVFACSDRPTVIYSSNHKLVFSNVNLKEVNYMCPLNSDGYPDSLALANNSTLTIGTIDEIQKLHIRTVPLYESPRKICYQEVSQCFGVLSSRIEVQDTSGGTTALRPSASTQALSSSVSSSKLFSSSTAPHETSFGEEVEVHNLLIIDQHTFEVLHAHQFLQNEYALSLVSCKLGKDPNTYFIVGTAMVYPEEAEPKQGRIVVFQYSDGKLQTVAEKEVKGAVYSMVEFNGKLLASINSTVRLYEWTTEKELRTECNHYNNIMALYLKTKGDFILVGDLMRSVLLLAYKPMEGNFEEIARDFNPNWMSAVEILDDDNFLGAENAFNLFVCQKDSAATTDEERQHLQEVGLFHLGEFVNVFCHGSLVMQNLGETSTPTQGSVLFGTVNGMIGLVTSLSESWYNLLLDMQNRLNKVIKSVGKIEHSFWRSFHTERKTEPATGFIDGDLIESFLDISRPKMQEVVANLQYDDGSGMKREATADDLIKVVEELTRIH
T2 sequence (Q16531 other isoform, or with tags, fused parts or gaps DEL396-460/DEL463-701/T703N/I704S/D705G): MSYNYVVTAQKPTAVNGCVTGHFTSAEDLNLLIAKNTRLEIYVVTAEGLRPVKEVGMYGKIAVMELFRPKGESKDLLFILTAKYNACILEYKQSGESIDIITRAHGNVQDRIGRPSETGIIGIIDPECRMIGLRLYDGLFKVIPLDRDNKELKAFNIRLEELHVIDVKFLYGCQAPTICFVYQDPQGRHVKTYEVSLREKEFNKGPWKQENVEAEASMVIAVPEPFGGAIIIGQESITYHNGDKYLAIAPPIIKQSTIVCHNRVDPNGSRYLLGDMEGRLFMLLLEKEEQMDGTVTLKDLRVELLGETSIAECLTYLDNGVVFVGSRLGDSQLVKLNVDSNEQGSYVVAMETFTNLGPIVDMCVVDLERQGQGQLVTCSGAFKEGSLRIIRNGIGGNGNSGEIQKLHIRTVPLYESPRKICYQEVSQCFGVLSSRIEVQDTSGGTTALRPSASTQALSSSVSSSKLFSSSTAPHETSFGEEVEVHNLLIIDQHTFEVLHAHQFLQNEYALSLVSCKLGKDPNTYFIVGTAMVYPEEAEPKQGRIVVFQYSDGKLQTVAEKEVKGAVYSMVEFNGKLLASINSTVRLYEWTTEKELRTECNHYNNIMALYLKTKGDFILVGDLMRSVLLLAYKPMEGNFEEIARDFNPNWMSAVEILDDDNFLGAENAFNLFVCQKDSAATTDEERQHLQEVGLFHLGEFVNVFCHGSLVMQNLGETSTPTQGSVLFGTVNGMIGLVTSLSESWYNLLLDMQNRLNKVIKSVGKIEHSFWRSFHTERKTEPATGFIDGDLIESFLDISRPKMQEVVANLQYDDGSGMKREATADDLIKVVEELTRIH

Compound	P300/CBP Degradation (100 nM) (P300/CBP)	Kd (DDB1)	other results
CC(=O)N1CCc2c(c(N3CCCc4cc(-c5cnn(C)c5)c(C(F)F)cc43)nn2C2CCN(CC(=O)NCCCCCNc3ccc(C(=O)Nc4ncc(C)s4)c(C)c3)CC2)C1 [CPD-192, 4-((5-(2-(4-(5-Acetyl-3-(7-(difluoromethyl)-6-(1-methyl-1H-pyrazol-4-yl)-3,4-dihydroquinolin-1(2H)-yl)-4,5,6,7-tetrahydro-1H-pyrazolo[4,3-c]pyridin-1-yl)piperidin-1-yl)acetamido)pentyl)amino)-2-methyl-N-(5-methylthiazol-2-yl)benzamide]	D (degradation activity < 30%)	–	–
CC(=O)N1CCc2c(c(N3CCCc4cc(-c5cnn(C)c5)c(C(F)F)cc43)nn2C2CCN(CC(=O)NCCC(=O)Nc3ccccc3C(=O)Nc3nc(C)c([N+](=O)[O-])s3)CC2)C1 [CPD-210, 2-(3-(2-(4-(5-Acetyl-3-(7-(difluoromethyl)-6-(1-methyl-1H-pyrazol-4-yl)-3,4-dihydroquinolin-1(2H)-yl)-4,5,6,7-tetrahydro-1H-pyrazolo[4,3-c]pyridin-1-yl)piperidin-1-yl)acetamido)propanamido)-N-(4-methyl-5-nitrothiazol-2-yl)benzamide]	D (degradation activity < 30%)	–	–
CC(=O)N1CCc2c(c(N3CCCc4cc(-c5cnn(C)c5)c(C(F)F)cc43)nn2C2CCN(CC(=O)NCCCCCCCNc3ccc(C(=O)Nc4ncc(C)s4)c(C)c3)CC2)C1 [CPD-194, 4-((7-(2-(4-(5-Acetyl-3-(7-(difluoromethyl)-6-(1-methyl-1H-pyrazol-4-yl)-3,4-dihydroquinolin-1(2H)-yl)-4,5,6,7-tetrahydro-1H-pyrazolo[4,3-c]pyridin-1-yl)piperidin-1-yl)acetamido)heptyl)amino)-2-methyl-N-(5-methylthiazol-2-yl)benzamide]	D (degradation activity < 30%)	–	–
CC(=O)N1CCc2c(c(N3CCCc4cc(-c5cnn(C)c5)c(C(F)F)cc43)nn2C2CCN(CC(=O)NCCCCCCC(=O)Nc3ccccc3C(=O)Nc3nc(C)c([N+](=O)[O-])s3)CC2)C1 [CPD-214, 2-(7-(2-(4-(5-Acetyl-3-(7-(difluoromethyl)-6-(1-methyl-1H-pyrazol-4-yl)-3,4-dihydroquinolin-1(2H)-yl)-4,5,6,7-tetrahydro-1H-pyrazolo[4,3-c]pyridin-1-yl)piperidin-1-yl)acetamido)heptanamido)-N-(4-methyl-5-nitrothiazol-2-yl)benzamide]	D (degradation activity < 30%)	–	–
CC(=O)N1CCc2c(c(N3CCCc4cc(-c5cnn(C)c5)c(C(F)F)cc43)nn2C2CCN(CC(=O)NCCOCCNc3ccc(C(=O)Nc4ncc(C)s4)c(C)c3)CC2)C1 [CPD-197, 4-((2-(2-(2-(4-(5-Acetyl-3-(7-(difluoromethyl)-6-(1-methyl-1H-pyrazol-4-yl)-3,4-dihydroquinolin-1(2H)-yl)-4,5,6,7-tetrahydro-1H-pyrazolo[4,3-c]pyridin-1-yl)piperidin-1-yl)acetamido)ethoxy)ethyl)amino)-2-methyl-N-(5-methylthiazol-2-yl)benzamide]	D (degradation activity < 30%)	–	–
CC(=O)N1CCc2c(c(N3CCCc4cc(-c5cnn(C)c5)c(C(F)F)cc43)nn2C2CCN(C(=O)CCC(=O)Nc3ccccc3C(=O)Nc3nc(C)c([N+](=O)[O-])s3)CC2)C1 [CPD-199, 2-(4-(4-(5-Acetyl-3-(7-(difluoromethyl)-6-(1-methyl-1H-pyrazol-4-yl)-3,4-dihydroquinolin-1(2H)-yl)-4,5,6,7-tetrahydro-1H-pyrazolo[4,3-c]pyridin-1-yl)piperidin-1-yl)-4-oxobutanamido)-N-(4-methyl-5-nitrothiazol-2-yl)benzamide]	D (degradation activity < 30%)	–	–
CC(=O)c1c(C)c2cnc(Nc3ccc(N4CCN(CC(=O)NCCOCCOCCOCCOCCOCCNc5ccc(C(=O)Nc6nc(Br)c(C)s6)c(C)c5)CC4)cn3)nc2n(C2CCCC2)c1=O [CPD-044, 4-((1-(4-(6-((6-Acetyl-8-cyclopentyl-5-methyl-7-oxo-7,8-dihydropyrido[2,3-d]pyrimidin-2-yl)amino)pyridin-3-yl)piperazin-1-yl)-2-oxo-6,9,12,15,18-pentaoxa-3-azaicosan-20-yl)amino)-N-(4-bromo-5-methylthiazol-2-yl)-2-methylbenzamide]	–	< 20 µM	CyclinD1 Degradation (200 nM) (cyclin D1): A (protein percentage degradation >=80%); inhibition at 0.2 µM (CDK4): 50 to 80%
COC(=O)c1nc(NC(=O)c2ccc(NCCOCCOCCOCCOCCOCCNC(=O)CN3CCN(c4ccc(Nc5ncc6c(C)c(C(C)=O)c(=O)n(C7CCCC7)c6n5)nc4)CC3)cc2C)sc1C [CPD-033, Methyl 2-(4-((1-(4-(6-((6-acetyl-8-cyclopentyl-5-methyl-7-oxo-7,8-dihydropyrido[2,3-d]pyrimidin-2-yl)amino)pyridin-3-yl)piperazin-1-yl)-2-oxo-6,9,12,15,18-pentaoxa-3-azaicosan-20-yl)amino)-2-methylbenzamido)-5-methylthiazole-4-carboxylate]	–	< 20 µM	CyclinD1 Degradation (200 nM) (cyclin D1): A (protein percentage degradation >=80%); inhibition at 0.2 µM (CDK4): > 80%
Cc1cnc(NC(=O)c2ccc(NCCOCCOCCOCCOCCOCCNC(=O)CN3CCN(c4ccc(Nc5ncc(F)c(-c6cc(F)c7nc(C)n(C(C)C)c7c6)n5)nc4)CC3)cc2C)s1 [CPD-021, 4-((1-(4-(6-((5-Fluoro-4-(4-fluoro-1-isopropyl-2-methyl-1H-benzo[d]imidazol-6-yl)pyrimidin-2-yl)amino)pyridin-3-yl)piperazin-1-yl)-2-oxo-6,9,12,15,18-pentaoxa-3-azaicosan-20-yl)amino)-2-methyl-N-(5-methylthiazol-2-yl)benzamide]	–	20 to 50 µM	CyclinD1 Degradation (10 μM) (cyclin D1): A (protein percentage degradation >= 80%); inhibition at 10 µM (CDK4): 50 to 80%
CC(=O)c1c(C)c2cnc(Nc3ccc(N4CCN(CC(=O)NCCOCCOCCOCCOCCOCCNc5ccc(C(=O)Nc6nc(C7CC7)c(C)s6)c(C)c5)CC4)cn3)nc2n(C2CCCC2)c1=O [CPD-046, 4-((1-(4-(6-((6-Acetyl-8-cyclopentyl-5-methyl-7-oxo-7,8-dihydropyrido[2,3-d]pyrimidin-2-yl)amino)pyridin-3-yl)piperazin-1-yl)-2-oxo-6,9,12,15,18-pentaoxa-3-azaicosan-20-yl)amino)-N-(4-cyclopropyl-5-methylthiazol-2-yl)-2-methylbenzamide]	–	< 20 µM	CyclinD1 Degradation (200 nM) (cyclin D1): A (protein percentage degradation >=80%); inhibition at 0.2 µM (CDK4): > 80%
Cc1cnc(NC(=O)c2ccc(NCCOCCOCCOCCOCCOCCNC(=O)CN3CCN(c4ccc(Nc5ncc6cc(C(=O)N(C)C)n(C7CCCC7)c6n5)nc4)CC3)cc2C)s1 [CPD-023, 7-Cyclopentyl-N,N-dimethyl-2-((5-(4-(20-((3-methyl-4-((5-methylthiazol-2-yl)carbamoyl)phenyl)amino)-2-oxo-6,9,12,15,18-pentaoxa-3-azaicosyl)piperazin-1-yl)pyridin-2-yl)amino)-7H-pyrrolo[2,3-d]pyrimidine-6-carboxamide]	–	50 to 100 µM	CyclinD1 Degradation (10 μM) (cyclin D1): A (protein percentage degradation >= 80%); inhibition at 10 µM (CDK4): > 80%
